Measurements from US20250223268A1, “4-Methylsulfonylbenzamide Compound, Preparation Method, Herbicidal Composition And Use” (Jiangsu Flag Chemical Industry Co., Ltd., priority 2022, published 2025).

Experiments:
Type in all cases: in vivo
Digitaria sanguinalis [1] = assay: Greenhouse herbicidal activity and crop safety comparison (Test Example 2); conditions: for inhibition at 75 g/ha / inhibition at 150 g/ha: Digitaria sanguinalis, read-out: Digitaria sanguinalis, control efficacy grading (fresh weight inhibition rate); for inhibition at 75 g/ha: Rate 75 g/ha; for inhibition at 150 g/ha / Digitaria sanguinalis, control efficacy grading (fresh weight inhibition rate): Rate 150 g/ha
How it was run: (§1)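 Fresh weight inhibition, banded into grades A to E (E <20%), was rated 14-21 days after foliar spraying of 3-6 leaf plants, or 14-30 days after a soil spray applied 24 h post-sowing.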

Echinochloa crusgalli [2] = assay: as above
How it was run: as §1

[3] = test system: Oryza sativa subsp. indica; assay: as above
How it was run: as §1

[4] = test system: Oryza sativa subsp. japonica; assay: as above
How it was run: as §1

Zea mays = assay: as above
How it was run: as §1

Cyperus iria = assay: Greenhouse herbicidal activity assay, post-emergence; conditions: Post-emergence test, rate 150 g a.i./hm^2, grade by fresh weight inhibition rate
How it was run: (§2)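 Scores reflect fresh weight inhibition assessed 14-21 days after treatment, with grade A meaning ≥80% to 100% and grade E meaning <20%. Plants, raised in nutrient-soil pots inside a growth chamber, were sprayed on the foliage at the 3-6 leaf stage.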

Digitaria sanguinalis [5] = assay: as above; conditions: Post-emergence test, rate 150 g a.i./hm^2, grade by fresh weight inhibition rate
How it was run: as §2

Echinochloa crusgalli [6] = assay: as above; conditions: Post-emergence test, rate 150 g a.i./hm^2, grade by fresh weight inhibition rate
How it was run: as §2

Eclipta prostrata = assay: as above; conditions: Post-emergence test, rate 150 g a.i./hm^2, grade by fresh weight inhibition rate
How it was run: as §2

Leptochloa chinensis = assay: as above; conditions: Post-emergence test, rate 150 g a.i./hm^2, grade by fresh weight inhibition rate
How it was run: as §2

[7] = Echinochloa crus-galli, Rate 75 g/ha, read-out: Echinochloa crusgalli, control efficacy grading (fresh weight inhibition rate)

SMILES | inhibition at 75 g/ha (Digitaria sanguinalis [1]) | inhibition at 150 g/ha (Digitaria sanguinalis [1]) | inhibition at 75 g/ha (Echinochloa crusgalli [2]; [7]) | Oryza sativa subsp. indica, grading of fresh weight inhibition rate (crop safety) ([3]; Rate 75 g/ha) | Oryza sativa subsp. indica, grading of fresh weight inhibition rate (crop safety) ([3]; Rate 150 g/ha) | Oryza sativa subsp. japonica, grading of fresh weight inhibition rate (crop safety) ([4]; Rate 75 g/ha) | Oryza sativa subsp. japonica, grading of fresh weight inhibition rate (crop safety) ([4]; Rate 150 g/ha) | Zea mays, grading of fresh weight inhibition rate (crop safety) (Zea mays; Rate 75 g/ha) | Zea mays, grading of fresh weight inhibition rate (crop safety) (Zea mays; Rate 150 g/ha) | Digitaria sanguinalis, control efficacy grading (fresh weight inhibition rate) (Digitaria sanguinalis [1]) | Echinochloa crusgalli, control efficacy grading (fresh weight inhibition rate) (Echinochloa crusgalli [2]; Rate 75 g/ha) | Echinochloa crusgalli, control efficacy grading (fresh weight inhibition rate) (Echinochloa crusgalli [2]; Rate 150 g/ha) | Control efficacy grade, Cyperus iria (Cyperus iria) | Control efficacy grade, Digitaria sanguinalis (Digitaria sanguinalis [5]) | Control efficacy grade, Echinochloa crusgalli (Echinochloa crusgalli [6]) | Control efficacy grade, Eclipta prostrata (Eclipta prostrata) | also measured
CCS(=O)(=O)c1c(S(C)(=O)=O)ccc(C(=O)Nc2ncnn2C)c1Cl [CK4, reference compound] | 20 to 40% | 40 to 60% | 40 to 60% | C (Fresh weight inhibition rate≥40% to <60%) | B (Fresh weight inhibition rate≥260% to <80%) | C (Fresh weight inhibition rate≥40% to <60%) | C (Fresh weight inhibition rate≥40% to <60%) | E (Fresh weight inhibition rate<20%) | D (Fresh weight inhibition rate≥20% to <40%) |  |  |  |  |  |  |  | 
CC(C)S(=O)(=O)c1c(S(C)(=O)=O)ccc(C(=O)Nc2ncnn2C)c1Cl [Compound 2-10, 2-chloro-3-(isopropylsulfonyl)-N-(1-methyl-H-1,2,4-triazol-5-yl)-4-(methylsulfonyl)benzamide] | 80 to 100% | 80 to 100% | 80 to 100% | E (Fresh weight inhibition rate<20%) | E (Fresh weight inhibition rate<20%) | E (Fresh weight inhibition rate<20%) | E (Fresh weight inhibition rate<20%) | E (Fresh weight inhibition rate<20%) | E (Fresh weight inhibition rate<20%) |  |  |  |  |  |  |  | inhibition at 150 g/ha (Echinochloa crusgalli [2]; Echinochloa crus-galli, Rate 150 g/ha, read-out: Echinochloa crusgalli, control efficacy grading (fresh weight inhibition rate)): 80 to 100%; pest or weed control at 150 g/ha (Cyperus iria; Cyperus iria, read-out: Control efficacy grade, Cyperus iria): 80 to 100%; pest or weed control at 150 g/ha (Digitaria sanguinalis [5]; Digitaria sanguinalis, read-out: Control efficacy grade, Digitaria sanguinalis): 80 to 100%; pest or weed control at 150 g/ha (Echinochloa crusgalli [6]; Echinochloa crus-galli, read-out: Control efficacy grade, Echinochloa crusgalli): 80 to 100%; pest or weed control at 150 g/ha (Eclipta prostrata; Eclipta prostrata, read-out: Control efficacy grade, Eclipta prostrata): 80 to 100%; pest or weed control at 150 g/ha (Leptochloa chinensis; Dinebra chinensis, read-out: Control efficacy grade, Leptochloa chinensis): 80 to 100%
Cn1ncnc1NC(=O)c1ccc(S(C)(=O)=O)c(S(=O)(=O)C2CCC2)c1Cl [Compound 2-41] |  |  |  | E (Fresh weight inhibition rate<20%) | E (Fresh weight inhibition rate<20%) | E (Fresh weight inhibition rate<20%) | E (Fresh weight inhibition rate<20%) | E (Fresh weight inhibition rate<20%) | E (Fresh weight inhibition rate<20%) | A (Fresh weight inhibition rate≥80% to 100%) | A (Fresh weight inhibition rate≥80% to 100%) | A (Fresh weight inhibition rate≥80% to 100%) | A (Fresh weight inhibition rate≥80% to 100%) | A (Fresh weight inhibition rate≥80% to 100%) | A (Fresh weight inhibition rate≥80% to 100%) | A (Fresh weight inhibition rate≥80% to 100%) | 
Cn1ncnc1NC(=O)c1ccc(S(C)(=O)=O)c(S(=O)(=O)C2CCCC2)c1Cl [Compound 2-46] |  |  |  | E (Fresh weight inhibition rate<20%) | E (Fresh weight inhibition rate<20%) | E (Fresh weight inhibition rate<20%) | E (Fresh weight inhibition rate<20%) | E (Fresh weight inhibition rate<20%) | E (Fresh weight inhibition rate<20%) | A (Fresh weight inhibition rate≥80% to 100%) | A (Fresh weight inhibition rate≥80% to 100%) | A (Fresh weight inhibition rate≥80% to 100%) | A (Fresh weight inhibition rate≥80% to 100%) | A (Fresh weight inhibition rate≥80% to 100%) | A (Fresh weight inhibition rate≥80% to 100%) | A (Fresh weight inhibition rate≥80% to 100%) | Control efficacy grade, Leptochloa chinensis (Leptochloa chinensis): A (Fresh weight inhibition rate≥80% to 100%)
